For nine molecules, Solubility results are on record in US20140225048A1, “LIQUID COMPOSITION, AND COLOR-FILTER RESIST COMPOSITION, THERMAL-TRANSFER RECORDING SHEET AND INK WHICH MAKE USE OF THE LIQUID COMPOSITION” (CANON KABUSHIKI KAISHA, priority 2011, published 2014).

The data set can be described thus: Examination of solubility of compounds in toluene. The following applies: in toluene at room temperature.

Turning to `Cn1c(=O)cc2c3c(c(Nc4ccccc4)ccc31)C(=O)c1ccccc1-2` [(1)], the Solubility entry is listed as “≦1%”.
Then `Cc1ccc(Nc2ccc3c4c(cc(=O)n3C)-c3ccccc3C(=O)c24)cc1` [(2)], with “≦1%”; and `Cc1cccc(Nc2ccc3c4c(cc(=O)n3C)-c3ccccc3C(=O)c24)c1` [(3)], with “≦1%”; and `Cc1ccc(Nc2ccc3c4c(cc(=O)n3-c3ccc(C)cc3)-c3ccccc3C(=O)c24)cc1` [(4)], with “≦1%”.
Turning to `O=C1c2ccccc2-c2cc(=O)n(C3CCCCC3)c3ccc(NC4CCCCC4)c1c23` [(5)], the Solubility entry is “≦0.1% ^”.
Next, `CCCCC(CC)CNc1ccc2c3c(cc(=O)n2C)-c2ccccc2C(=O)c13` (stereo not drawn) [Compound (1)]: 5%; `CCCCC(CC)CNc1ccc2c3c(cc(=O)n2CC(CC)CCCC)-c2ccccc2C(=O)c13` (stereo not drawn) [Compound (5)]: “≧10%^”; `CCCCCCCCCCCCNc1ccc2c3c(cc(=O)n2CCCC)-c2ccccc2C(=O)c13` [Compound (8)]: “≧10%^”.
Then `CCCCn1c(=O)cc2c3c(c(NCCC4=CCCCC4)ccc31)C(=O)c1ccccc1-2` [Compound (9)], with “≧10%^”.
